Data reported in article PMC4890880 (ACS infectious diseases, 2016).
pIC50: −log10 of the molar value. Like-named read-outs stand apart in the source and are kept apart here.

Assays:
[1] = test system: Plasmodium berghei (Pb-Luc) exoerythrocytic-stage parasites; assay: microbe, parasite or virus in culture; details: for pIC50: read-out: PbLuc IC50, dose response, 1/3 dilutions, max conc. 10 or 50 uM, unit inferred
HepG2-A16-CD81EGFP cells = assay: cells; details: Homo sapiens; for pIC50: HepG2, read-out: Tox IC50; for inhibition at 50 µM: HepG2, read-out: Tox max inhibition (%) @ 50 uM
[2] = read-out: Inhibition% @ 50 uM rep1
[3] = read-out: Inhibition% @ 50 uM rep2
[4] = read-out: PbLuc max inhibition (%) @ 50 uM
[5] = HepG2, read-out: HepG2 Tox% @ 50 uM rep1
[6] = HepG2, read-out: HepG2 Tox% @ 50 uM rep2

| SMILES | inhibition at 50 µM [1, 2] [%] | inhibition at 50 µM [1, 3] [%] | pIC50 [1] | inhibition at 50 µM [1, 4] [%] | cytotoxicity at 50 µM (HepG2-A16-CD81EGFP cells; [5]) [%] | pIC50 (HepG2-A16-CD81EGFP cells) | inhibition at 50 µM (HepG2-A16-CD81EGFP cells) [%] | cytotoxicity at 50 µM (HepG2-A16-CD81EGFP cells; [6]) [%] |
| --- | --- | --- | --- | --- | --- | --- | --- | --- |
| CCCOCc1cc(CN2CCN(c3cccc(Cl)c3)CC2)c(O)c2ncccc12 [MMV000787] | 100 | 100 | 6.03 | 101 | 93 | 5.46 | 100 |  |
| CC(Oc1ccc(NC(=O)c2cccs2)cc1)C(=O)c1ccc(Cl)cc1 (stereo not drawn) [MMV665886] | 102 | 102 |  |  | 82 |  |  |  |
| CC(C)OCc1cc(CN2CCN(c3cccc(Cl)c3)CC2)c(O)c2ncccc12 [MMV000788] | 103 | 106 | 6.00 | 101 | 99 | 5.52 | 94 | 100 |
| Cc1cc(NCCN2CCCCC2)c2ccc3ccccc3c2n1 [MMV006203] | 99 | 101 |  |  | 93 |  |  | 95 |
| O=C(NCCCN1CCC(N2CCCCC2)CC1)C1=Cc2cc(Br)ccc2OC1 [MMV019995] | 102 | 102 |  |  | 100 |  |  |  |
| COc1ccc2c(c1)C1(Nc3ccccc3-c3nc4ccccc4n31)C(=O)N2 (stereo not drawn) [MMV396749] | 102 | 102 | 4.80 | 98 | 88 | < 4.30 | 45 | 94 |
| Cc1cccc(-n2ncc3c(=O)[nH]c(-n4nc(C)cc4NC(=O)c4cc5ccccc5o4)nc32)c1 [MMV403679] | 100 | 100 |  |  | 38 |  |  | 47 |
| Cc1ccc(OCCCCCCNCCO)c(C)c1 [MMV666020] | 104 | 104 |  |  | 90 |  |  |  |
| COc1cc(OC)c(N(C)C(=O)c2cc3c(s2)-c2ccccc2S(=O)(=O)C3)cc1Cl [MMV006427] | 99 | 102 | 4.96 | 97 | 53 | < 4.30 | 39 | 52 |
| CC(C)(C)c1ccc(C(=O)Nc2nc3ccccc3s2)cc1 [MMV142383] | 103 | 105 |  |  | 89 |  |  | 96 |
| c1ccc(-c2ccc(-c3nc4ccccc4[nH]3)cc2)cc1 [MMV665891] | 103 | 105 |  |  | 39 |  |  | 30 |
| CC(C)c1ccc(CNCC(O)c2ccccc2)cc1 (stereo not drawn) [MMV001049] | 100 | 102 |  |  | 96 |  |  | 97 |
| CN(C)c1ccc(C(O)(c2ccc(N(C)C)cc2)c2ccc(N(C)C)cc2)cc1 [MMV665941] | 102 | 104 | 5.77 | 99 | 95 | 5.64 | 96 | 97 |
| CC(O)(c1ccc(Cl)cc1)C(CN1CCCCC1)c1ccccc1 (stereo not drawn) [MMV000620] | 101 | 102 |  |  | 63 |  |  | 90 |
| Cc1ccc(Cl)cc1N1CCN(CCCNC(=O)C2CCN(c3nc4ccccc4[nH]3)CC2)CC1 [MMV019746] | 103 | 105 |  |  | 100 |  |  | 101 |
| CCN(CC)CCNc1ccnc2cc3ccccc3cc12 [MMV006303] | 102 | 103 | 4.68 | 98 | 99 | 4.37 | 92 |  |
| O=c1nc(C=Cc2ccc(Br)cc2)oc2ccccc12 [MMV666599] | 102 | 103 |  |  | 70 |  |  |  |
| COc1ccc2c(c1)OC(O)(C(F)(F)C(F)(F)F)CC2=O (stereo not drawn) [MMV007839] | 102 | 98 |  |  | 96 |  |  | 96 |
| CN1CCN(c2ccc(Nc3c4ccccc4nc4ccccc34)cc2)CC1 [MMV006172] | 104 | 106 | 5.46 | 99 | 97 | 5.29 | 94 | 99 |
| COc1ccc(CCN2C(=O)c3[nH]nc(-c4cc(Cl)c(C)cc4O)c3C2c2ccccc2F)cc1 (stereo not drawn) [MMV396717] | 101 | 101 |  |  | 97 |  |  |  |
| c1ccc2cc3c(Nc4ccc(N5CCOCC5)cc4)ccnc3cc2c1 [MMV006861] | 103 | 105 |  |  | 78 |  |  | 99 |

| SMILES | inhibition at 50 µM [1, 2] [%] | inhibition at 50 µM [1, 3] [%] | pIC50 [1] | inhibition at 50 µM [1, 4] [%] | cytotoxicity at 50 µM (HepG2-A16-CD81EGFP cells; [5]) [%] | pIC50 (HepG2-A16-CD81EGFP cells) | inhibition at 50 µM (HepG2-A16-CD81EGFP cells) [%] | cytotoxicity at 50 µM (HepG2-A16-CD81EGFP cells; [6]) [%] |
| --- | --- | --- | --- | --- | --- | --- | --- | --- |
| O=C(Nc1nc(-c2ccccn2)cs1)c1ccccc1Br [MMV665909] | 98 | 98 |  |  | 79 |  |  | 86 |
| Cc1ccc(F)cc1NC(=O)c1cc(Cl)ccc1Nc1ccccc1 [MMV007275] | 75 | 69 |  |  | -8 |  |  |  |
| Cc1ccc2c(C)nc(Nc3nc(C)cc(-c4ccccc4)n3)nc2c1 [MMV007041] | 103 | 103 |  |  | 37 |  |  |  |
| CCOc1ccc(CN2CCN(CC(O)COc3ccc(OCC(O)CN4CCN(Cc5ccc(OCC)cc5)CC4)cc3)CC2)cc1 (stereo not drawn) [MMV007092] | 103 | 104 | 4.91 | 99 | 98 | 4.38 | 65 |  |
| O=C(NC1CCN(Cc2ccccc2)CC1)c1cc(C(=O)NC2CCN(Cc3ccccc3)CC2)cc(C(=O)NC2CCN(Cc3ccccc3)CC2)c1 [MMV019881] | 104 | 104 | 4.83 | 94 | 101 | < 4.30 | 60 |  |
| Cc1cc(N(C)C)nc(Nc2ccc(NC(=O)Nc3ccccc3)cc2)n1 [MMV020243] | 96 | 99 | 5.84 | 100 | 96 | 4.81 | 100 |  |
| Clc1ccc2[nH]c3c(NCCCN4CCOCC4)ncnc3c2c1 [MMV006587] | 101 | 100 |  |  | 95 |  |  | 98 |
| CCN(CC)CCNc1ncnc2c1[nH]c1ccc(Br)cc12 [MMV006545] | 104 | 106 |  |  | 99 |  |  | 101 |
| Nc1ccc(-c2nc3cc(Cc4ccc5[nH]c(-c6ccc(N)cc6)nc5c4)ccc3[nH]2)cc1 [MMV665943] | 103 | 104 | 5.00 | 97 | 99 | 4.84 | 95 |  |
| Cc1sc(NC(=O)c2ccco2)c(C(c2cccnc2)N2CCC(Cc3ccccc3)CC2)c1C (stereo not drawn) [MMV396663] | 103 | 103 |  |  | 82 |  |  |  |
| Clc1cc(Br)ccc1-c1ccc(CNCC2CCNCC2)o1 [MMV019918] | 103 | 105 | 5.09 | 99 | 97 | 4.81 | 100 | 99 |
| COc1cc(C(=O)Nc2nc3c(cc4c5c(cccc53)CC4)s2)cc(OC)c1OC [MMV396665] | 76 | 80 |  |  | 11 |  |  |  |
| COc1cc(-c2nc(-c3ccc(Sc4ccccc4)cc3)c(-c3ccccc3)[nH]2)cc(OC)c1O [MMV007273] | 101 | 102 | 5.12 | 100 | 89 | 4.47 | 82 |  |
| Oc1ccc(Br)cc1CN1CCN(Cc2cccc(F)c2)CC1 [MMV000356] | 100 | 92 |  |  | 64 |  |  |  |
| COc1ccc(Nc2nc(NN=Cc3ccc(O)cc3)nc(Nc3ccc([N+](=O)[O-])cc3)n2)cc1 [MMV666689] | 98 | 98 | 4.80 | 95 | 97 | 4.33 | 73 |  |
| Cc1cc(Nc2ccc(C)c(Cl)c2)n2nc(C(F)(F)F)nc2n1 [MMV665874] | 102 | 102 |  |  | 93 |  |  | 95 |
| C[n+]1c2ccccc2nc2ccc(NCCO)cc21 [MMV396693] | 102 | 104 |  |  | 81 |  |  | 93 |
| Cc1ccc(-c2nc3ccccc3o2)cc1NCc1cc(Cc2ccccc2)ccc1O [MMV020912] | 75 | 76 |  |  | 13 |  |  |  |
| CC(C)(C)C(=O)Nc1ccc(C(=O)Nc2cccc(-c3nc4ccccc4[nH]3)c2)cc1 [MMV665879] | 102 | 103 |  |  | 99 |  |  | 100 |
| Cc1ccc(Nc2nc(-c3ccccn3)cs2)cc1 [MMV007907] | 103 | 106 |  |  | 93 |  |  | 96 |
